Like-named read-outs stand apart in the source and are kept apart here.
Experiment: Toxicokinetics test in the satellite groups (UPLC-MS/MS of rat plasma)
Type: in vivo
Conditions: for AUC(0-t) / Cmax / Tmax / half-life: SD, rat, plasma, po; for half-life: read-out: T1/2 mean (converted)
Protocol: SD rats (5 ~ 6 weeks, 3/group/sex) were randomly allocated to three treatment groups and given the same dosage as those in the repeated toxicity experiment for 28 days. […] Carbamazepine was chosen as the internal standard (IS). The blood samples were centrifuged to obtain plasma. Then, 300 μL of acetonitrile containing 40 ng of IS was added to 100 μL of plasma. After vortexing for 1 min, the mixture was centrifuged at 17,000 rpm for 15 min at 4 °C. The supernatant of each sample was injected into a UPLC–MS/MS system for determination. The injection volume was 1 μL. UPLC–MS analysis was performed on a Thermo Fisher Scientific Ultimate 3000 UPLC system (San Jose, USA) and an API 4000 QTRAP mass spectrometer (Foster City, USA) equipped with an ESI source. The mobile phase consisted of 2 solvents: (A) water containing 0.1% formic acid and (B) 100% acetonitrile. For MS, multiple reaction monitoring (MRM) in positive ion mode was used as the scanning mode for the main components and IS in the plasma samples. The dwell time (DT), collision energy (CE), quadrupole 1 pre-rod bias (Q1) and quadrupole 3 pre-rod bias (Q3) are listed in Table 3.

[1] = female, female rats, Day 1, highest dose (berberine 72.08, epiberberine 7.42, coptisine 7.42, palmatine 18.26, jatrorrhizine 2.80, columbamine 5.93 mg/kg)
[2] = female, female rats, Day 1, lowest dose (berberine 8.01, epiberberine 0.82, coptisine 1.38, palmatine 2.03, jatrorrhizine 0.31, columbamine 0.66 mg/kg)
[3] = female, female rats, Day 1, middle dose (berberine 24.03, epiberberine 2.47, coptisine 2.47, palmatine 6.09, jatrorrhizine 0.93, columbamine 1.98 mg/kg)
[4] = female, female rats, Day 28, highest dose (berberine 72.08, epiberberine 7.42, coptisine 7.42, palmatine 18.26, jatrorrhizine 2.80, columbamine 5.93 mg/kg)
[5] = female, female rats, Day 28, lowest dose (berberine 8.01, epiberberine 0.82, coptisine 1.38, palmatine 2.03, jatrorrhizine 0.31, columbamine 0.66 mg/kg)
[6] = female, female rats, Day 28, middle dose (berberine 24.03, epiberberine 2.47, coptisine 2.47, palmatine 6.09, jatrorrhizine 0.93, columbamine 1.98 mg/kg)
[7] = male, male rats, Day 1, highest dose (berberine 72.08, epiberberine 7.42, coptisine 7.42, palmatine 18.26, jatrorrhizine 2.80, columbamine 5.93 mg/kg)
[8] = male, male rats, Day 1, lowest dose (berberine 8.01, epiberberine 0.82, coptisine 1.38, palmatine 2.03, jatrorrhizine 0.31, columbamine 0.66 mg/kg)
[9] = male, male rats, Day 1, middle dose (berberine 24.03, epiberberine 2.47, coptisine 2.47, palmatine 6.09, jatrorrhizine 0.93, columbamine 1.98 mg/kg)
[10] = male, male rats, Day 28, highest dose (berberine 72.08, epiberberine 7.42, coptisine 7.42, palmatine 18.26, jatrorrhizine 2.80, columbamine 5.93 mg/kg)
[11] = male, male rats, Day 28, lowest dose (berberine 8.01, epiberberine 0.82, coptisine 1.38, palmatine 2.03, jatrorrhizine 0.31, columbamine 0.66 mg/kg)
[12] = male, male rats, Day 28, middle dose (berberine 24.03, epiberberine 2.47, coptisine 2.47, palmatine 6.09, jatrorrhizine 0.93, columbamine 1.98 mg/kg)

`COc1cc2c(cc1O)-c1cc3ccc(OC)c(OC)c3c[n+]1CC2` [columbamine] gave an AUC(0-t) (female, 0.4 g/kg, female rats, Day 1, low dose TAZF 0.4 g/kg by gavage, read-out: AUC0-t) of 71.4 ± 80.1 ng·h/mL, a Cmax (female, 0.4 g/kg, female rats, Day 1, low dose TAZF 0.4 g/kg by gavage, read-out: Cmax) of 30 ± 20.7 ng/mL and an AUC(0-t) (female, 0.4 g/kg, female rats, Day 28, low dose TAZF 0.4 g/kg by gavage, read-out: AUC0-t) of 68.1 ± 76.9 ng·h/mL. For the same molecule, the Cmax (female, 0.4 g/kg, female rats, Day 28, low dose TAZF 0.4 g/kg by gavage, read-out: Cmax) was 30.3 ± 40 ng/mL, the AUC(0-t) (female, 3.7 g/kg, female rats, Day 1, high dose TAZF 3.7 g/kg by gavage, read-out: AUC0-t) was 41.1 ± 10 ng·h/mL and the Cmax (female, 3.7 g/kg, female rats, Day 1, high dose TAZF 3.7 g/kg by gavage, read-out: Cmax) was 37.7 ± 30.4 ng/mL. For the same molecule, the AUC(0-t) (female, 3.7 g/kg, female rats, Day 28, high dose TAZF 3.7 g/kg by gavage, read-out: AUC0-t) was 12.2 ± 4.52 ng·h/mL, the Cmax (female, 3.7 g/kg, female rats, Day 28, high dose TAZF 3.7 g/kg by gavage, read-out: Cmax) was 2.98 ± 0.24 ng/mL and the Tmax [1] was 0.5 h. It also gave an AUC(0-t) (female, female rats, Day 1, highest dose (berberine 72.08, epiberberine 7.42, coptisine 7.42, palmatine 18.26, jatrorrhizine 2.80, columbamine 5.93 mg/kg), read-out: AUC0-t mean) of 41.1 ng·h/mL, a Cmax (female, female rats, Day 1, highest dose (berberine 72.08, epiberberine 7.42, coptisine 7.42, palmatine 18.26, jatrorrhizine 2.80, columbamine 5.93 mg/kg), read-out: Cmax mean) of 37.7 ng/mL and a half-life [1] of 8.24 h. For the same molecule, the Tmax [2] was 2.33 h, the AUC(0-t) (female, female rats, Day 1, lowest dose (berberine 8.01, epiberberine 0.82, coptisine 1.38, palmatine 2.03, jatrorrhizine 0.31, columbamine 0.66 mg/kg), read-out: AUC0-t mean) was 71.4 ng·h/mL and the Cmax (female, female rats, Day 1, lowest dose (berberine 8.01, epiberberine 0.82, coptisine 1.38, palmatine 2.03, jatrorrhizine 0.31, columbamine 0.66 mg/kg), read-out: Cmax mean) was 30 ng/mL. The half-life [2] was 4.31 h, the Tmax [3] was 0.83 h and the AUC(0-t) (female, female rats, Day 1, middle dose (berberine 24.03, epiberberine 2.47, coptisine 2.47, palmatine 6.09, jatrorrhizine 0.93, columbamine 1.98 mg/kg), read-out: AUC0-t mean) was 59.2 ng·h/mL. The Cmax (female, female rats, Day 1, middle dose (berberine 24.03, epiberberine 2.47, coptisine 2.47, palmatine 6.09, jatrorrhizine 0.93, columbamine 1.98 mg/kg), read-out: Cmax mean) was 39.6 ng/mL, the half-life [3] was 7.78 h and the Tmax [4] was 1.17 h. The AUC(0-t) (female, female rats, Day 28, highest dose (berberine 72.08, epiberberine 7.42, coptisine 7.42, palmatine 18.26, jatrorrhizine 2.80, columbamine 5.93 mg/kg), read-out: AUC0-t mean) was 12.2 ng·h/mL, the Cmax (female, female rats, Day 28, highest dose (berberine 72.08, epiberberine 7.42, coptisine 7.42, palmatine 18.26, jatrorrhizine 2.80, columbamine 5.93 mg/kg), read-out: Cmax mean) was 2.98 ng/mL and the half-life [4] was 12.4 h. For the same molecule, the Tmax [5] was 0.42 h, the AUC(0-t) (female, female rats, Day 28, lowest dose (berberine 8.01, epiberberine 0.82, coptisine 1.38, palmatine 2.03, jatrorrhizine 0.31, columbamine 0.66 mg/kg), read-out: AUC0-t mean) was 68.1 ng·h/mL and the Cmax (female, female rats, Day 28, lowest dose (berberine 8.01, epiberberine 0.82, coptisine 1.38, palmatine 2.03, jatrorrhizine 0.31, columbamine 0.66 mg/kg), read-out: Cmax mean) was 30.3 ng/mL. The half-life [5] was 10.9 h, the Tmax [6] was 1.5 h and the AUC(0-t) (female, female rats, Day 28, middle dose (berberine 24.03, epiberberine 2.47, coptisine 2.47, palmatine 6.09, jatrorrhizine 0.93, columbamine 1.98 mg/kg), read-out: AUC0-t mean) was 9.42 ng·h/mL. It also gave a Cmax (female, female rats, Day 28, middle dose (berberine 24.03, epiberberine 2.47, coptisine 2.47, palmatine 6.09, jatrorrhizine 0.93, columbamine 1.98 mg/kg), read-out: Cmax mean) of 1.35 ng/mL, a half-life [6] of 10.7 h and an AUC(0-t) (male, 0.4 g/kg, male rats, Day 1, low dose TAZF 0.4 g/kg by gavage, read-out: AUC0-t) of 153 ± 54.9 ng·h/mL. It also gave a Cmax (male, 0.4 g/kg, male rats, Day 1, low dose TAZF 0.4 g/kg by gavage, read-out: Cmax) of 32.1 ± 28.7 ng/mL, an AUC(0-t) (male, 0.4 g/kg, male rats, Day 28, low dose TAZF 0.4 g/kg by gavage, read-out: AUC0-t) of 31.1 ± 2.21 ng·h/mL and a Cmax (male, 0.4 g/kg, male rats, Day 28, low dose TAZF 0.4 g/kg by gavage, read-out: Cmax) of 44.2 ± 42.3 ng/mL. The AUC(0-t) (male, 3.7 g/kg, male rats, Day 1, high dose TAZF 3.7 g/kg by gavage, read-out: AUC0-t) was 276 ± 92 ng·h/mL, the Cmax (male, 3.7 g/kg, male rats, Day 1, high dose TAZF 3.7 g/kg by gavage, read-out: Cmax) was 46.5 ± 30.3 ng/mL and the AUC(0-t) (male, 3.7 g/kg, male rats, Day 28, high dose TAZF 3.7 g/kg by gavage, read-out: AUC0-t) was 65.1 ± 6.74 ng·h/mL. It also gave a Cmax (male, 3.7 g/kg, male rats, Day 28, high dose TAZF 3.7 g/kg by gavage, read-out: Cmax) of 16.4 ± 11.8 ng/mL, a Tmax [7] of 4 h and an AUC(0-t) (male, male rats, Day 1, highest dose (berberine 72.08, epiberberine 7.42, coptisine 7.42, palmatine 18.26, jatrorrhizine 2.80, columbamine 5.93 mg/kg), read-out: AUC0-t mean) of 276 ng·h/mL. For the same molecule, the Cmax (male, male rats, Day 1, highest dose (berberine 72.08, epiberberine 7.42, coptisine 7.42, palmatine 18.26, jatrorrhizine 2.80, columbamine 5.93 mg/kg), read-out: Cmax mean) was 46.5 ng/mL, the half-life [7] was 10.9 h and the Tmax [8] was 10 h. It also gave an AUC(0-t) (male, male rats, Day 1, lowest dose (berberine 8.01, epiberberine 0.82, coptisine 1.38, palmatine 2.03, jatrorrhizine 0.31, columbamine 0.66 mg/kg), read-out: AUC0-t mean) of 153 ng·h/mL, a Cmax (male, male rats, Day 1, lowest dose (berberine 8.01, epiberberine 0.82, coptisine 1.38, palmatine 2.03, jatrorrhizine 0.31, columbamine 0.66 mg/kg), read-out: Cmax mean) of 32.1 ng/mL and a half-life [8] of 47.8 h. For the same molecule, the Tmax [9] was 1.83 h, the AUC(0-t) (male, male rats, Day 1, middle dose (berberine 24.03, epiberberine 2.47, coptisine 2.47, palmatine 6.09, jatrorrhizine 0.93, columbamine 1.98 mg/kg), read-out: AUC0-t mean) was 207 ng·h/mL and the Cmax (male, male rats, Day 1, middle dose (berberine 24.03, epiberberine 2.47, coptisine 2.47, palmatine 6.09, jatrorrhizine 0.93, columbamine 1.98 mg/kg), read-out: Cmax mean) was 41.7 ng/mL. For the same molecule, the half-life [9] was 59.9 h, the Tmax [10] was 4.08 h and the AUC(0-t) (male, male rats, Day 28, highest dose (berberine 72.08, epiberberine 7.42, coptisine 7.42, palmatine 18.26, jatrorrhizine 2.80, columbamine 5.93 mg/kg), read-out: AUC0-t mean) was 65.1 ng·h/mL. For the same molecule, the Cmax (male, male rats, Day 28, highest dose (berberine 72.08, epiberberine 7.42, coptisine 7.42, palmatine 18.26, jatrorrhizine 2.80, columbamine 5.93 mg/kg), read-out: Cmax mean) was 16.4 ng/mL, the half-life [10] was 11.2 h and the Tmax [11] was 0.83 h. The AUC(0-t) (male, male rats, Day 28, lowest dose (berberine 8.01, epiberberine 0.82, coptisine 1.38, palmatine 2.03, jatrorrhizine 0.31, columbamine 0.66 mg/kg), read-out: AUC0-t mean) was 31.1 ng·h/mL, the Cmax (male, male rats, Day 28, lowest dose (berberine 8.01, epiberberine 0.82, coptisine 1.38, palmatine 2.03, jatrorrhizine 0.31, columbamine 0.66 mg/kg), read-out: Cmax mean) was 44.2 ng/mL and the half-life [11] was 7.52 h. The Tmax [12] was 12 h, the AUC(0-t) (male, male rats, Day 28, middle dose (berberine 24.03, epiberberine 2.47, coptisine 2.47, palmatine 6.09, jatrorrhizine 0.93, columbamine 1.98 mg/kg), read-out: AUC0-t mean) was 90.6 ng·h/mL and the Cmax (male, male rats, Day 28, middle dose (berberine 24.03, epiberberine 2.47, coptisine 2.47, palmatine 6.09, jatrorrhizine 0.93, columbamine 1.98 mg/kg), read-out: Cmax mean) was 21.4 ng/mL. For the same molecule, the half-life [12] was 4.07 h and the “Systemic exposure after 28 days of administration vs single administration” value (rats, oral TAZF) was “much lower”.

From PMC9377102, “Toxicity and toxicokinetics of the ethanol extract of Zuojin formula” (BMC Complementary Medicine and Therapies, 2022)
